Test [1] deals with T1, c-Myc protein (Homo sapiens, UniProt P01106).
T1 construct: endogenous in cells; host or cells: HL60 cells
Nature of the test: Ability of compounds to degrade c-Myc protein in HL60 cells (ELISA). The class given is cell-based. The note with it: HL-60, 1 μM compound, 24 h, read-out: HL60 cells Protein degradation rate (1 μM).

Test [2] relates to HL60 cells. Briefly: Anti-proliferation ability of compounds on HL60 cells (CTG). Particulars: 3 days, CellTiter-Glo, read-out: HL60 cells Proliferation inhibitory activity. The class given is cell-based, human. The method, boiled down: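 Proliferation inhibition IC50 derived from CellTiter-Glo luminescence after 3-day compound treatment of HL60 cells plated at 20000 per well, against 0.1% DMSO controls.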

Structures are written as SMILES. Read-outs that look alike come from different tables or passages of the source.

T1 sequence (P01106 whole entry): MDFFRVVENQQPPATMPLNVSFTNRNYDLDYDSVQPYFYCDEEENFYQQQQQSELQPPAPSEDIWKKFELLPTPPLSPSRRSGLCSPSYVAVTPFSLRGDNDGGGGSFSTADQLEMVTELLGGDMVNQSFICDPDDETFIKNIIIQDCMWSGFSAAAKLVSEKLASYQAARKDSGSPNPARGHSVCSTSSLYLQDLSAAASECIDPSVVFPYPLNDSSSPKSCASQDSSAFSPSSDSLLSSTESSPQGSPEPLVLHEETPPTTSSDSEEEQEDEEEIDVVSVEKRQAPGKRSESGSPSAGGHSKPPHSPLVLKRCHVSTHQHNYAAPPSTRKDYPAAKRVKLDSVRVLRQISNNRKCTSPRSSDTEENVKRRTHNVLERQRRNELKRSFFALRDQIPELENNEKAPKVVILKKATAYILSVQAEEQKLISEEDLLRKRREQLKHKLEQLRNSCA

For the compound `CN(CCn1c2ccccc2c2cccnc21)C1(c2ccc(CNC(=O)c3ccc4c(c3)C(=O)N(C3CCC(=O)NC3=O)C4=O)cc2)CC1` (stereo not shown) [A144], the inhibition at 1 µM in test [1] was 60 to 90%. The IC50 in test [2] (Homo sapiens, HL-60, 72 h) stood at 18.4 ± 7.4 nM.

Turning to `CC(C)(NC(=O)c1ccc2c(c1)C(=O)N(C1CCC(=O)NC1=O)C2=O)c1ccc(CNC(=O)Cc2cccc3ccccc23)cc1` (stereo not shown) [A145], the inhibition at 1 µM in test [1] was 60 to 90%. Besides, the IC50 in test [2] (Homo sapiens, HL-60, 72 h) was 117.7 ± 1.1 nM.

With `CC(C)(NC(=O)c1ccc2c(c1)C(=O)N(C1CCC(=O)NC1=O)C2=O)c1ccc(CNC(=O)Cn2c3ccccc3c3cccnc32)cc1` (stereo not shown) [A146], the inhibition at 1 µM in test [1] is 60 to 90%. For the same compound, the IC50 in test [2] (Homo sapiens, HL-60, 72 h) was determined as 14.7 ± 4 nM.

Turning to `CN(CCc1cccc2ccccc12)Cc1ccc(C(C)(C)NC(=O)c2ccc3c(c2)C(=O)N(C2CCC(=O)NC2=O)C3=O)cc1` (stereo not shown) [A147], in test [1], the inhibition at 1 µM lay within 60 to 90%. For the same compound, in test [2] (Homo sapiens, HL-60, 72 h), the IC50 came out at 16.7 ± 9.5 nM.

`CN(CCn1c2ccccc2c2cccnc21)Cc1ccc(C(C)(C)NC(=O)c2ccc3c(c2)C(=O)N(C2CCC(=O)NC2=O)C3=O)cc1` (stereo not shown) [A148]: in test [1], the inhibition at 1 µM fell in the range of 60 to 90%. For the same compound, in test [2] (Homo sapiens, HL-60, 72 h), the IC50 came to 12 ± 8.1 nM.

As to `CC(C)(NC(=O)Cc1cccc2ccccc12)c1ccc(CNC(=O)c2ccc3c(c2)C(=O)N(C2CCC(=O)NC2=O)C3=O)cc1` (stereo not shown) [A149], in test [1], the inhibition at 1 µM fell in the range of 60 to 90%. In addition, in test [2] (Homo sapiens, HL-60, 72 h), the IC50 worked out at 7.6 ± 3 nM.

Take `CC(C)(NC(=O)Cn1c2ccccc2c2cccnc21)c1ccc(CNC(=O)c2ccc3c(c2)C(=O)N(C2CCC(=O)NC2=O)C3=O)cc1` (stereo not shown) [A150]: the inhibition at 1 µM in test [1] is 60 to 90%. For the same compound, the IC50 in test [2] (Homo sapiens, HL-60, 72 h) was 7.2 ± 1 nM.

Consider `CN(CCn1c2ccccc2c2cccnc21)C(C)(C)c1ccc(CNC(=O)c2ccc3c(c2)C(=O)N(C2CCC(=O)NC2=O)C3=O)cc1` (stereo not shown) [A151], for which the inhibition at 1 µM in test [1] is 60 to 90%. Also, the IC50 in test [2] (Homo sapiens, HL-60, 72 h) is 11.3 ± 4.7 nM.

As to `O=C(Cc1cccc2ccccc12)NCc1ccc(CNC(=O)c2ccc3c(c2)CN(C2CCC(=O)NC2=O)C3=O)cc1` (stereo not shown) [A152], in test [1], the inhibition at 1 µM fell in the range of 60 to 90%. Further, the IC50 in test [2] (Homo sapiens, HL-60, 72 h) stood at 0.6 ± 0.3 nM.

As to `O=C(Cn1c2ccccc2c2cccnc21)NCc1ccc(CNC(=O)c2ccc3c(c2)CN(C2CCC(=O)NC2=O)C3=O)cc1` (stereo not shown) [A153], the inhibition at 1 µM in test [1] lay in the range of 60 to 90%. Besides, the IC50 in test [2] (Homo sapiens, HL-60, 72 h) worked out at 0.5 ± 0.3 nM.

With `O=C(Cc1c(F)ccc2ccccc12)NCc1ccc(CNC(=O)c2ccc3c(c2)CN(C2CCC(=O)NC2=O)C3=O)cc1` (stereo not shown) [A154], in test [1], the inhibition at 1 µM fell in the range of 60 to 90%. Besides, in test [2] (Homo sapiens, HL-60, 72 h), the IC50 is 1.2 ± 0.1 nM.

Consider `O=C(Cc1cccc2ccc(F)cc12)NCc1ccc(CNC(=O)c2ccc3c(c2)CN(C2CCC(=O)NC2=O)C3=O)cc1` (stereo not shown) [A155], for which the inhibition at 1 µM in test [1] is 60 to 90%. For the same compound, in test [2] (Homo sapiens, HL-60, 72 h), the IC50 came out at 3 ± 0.6 nM.

Consider `CN(CCn1c2ccccc2c2cccnc21)Cc1ccc(CNC(=O)c2ccc3c(c2)CN(C2CCC(=O)NC2=O)C3=O)cc1` (stereo not shown) [A156], for which the inhibition at 1 µM in test [1] is 60 to 90%. The IC50 in test [2] (Homo sapiens, HL-60, 72 h) was under 3 nM.

For `O=C(Cn1c2ccccc2c2cccnc21)NCc1ccc(CNC(=O)c2ccc3c(c2)CN(C2CCC(=O)NC2=O)C3=O)c(F)c1` (stereo not shown) [A157], the inhibition at 1 µM in test [1] was in the range of 60 to 90%. In addition, in test [2] (Homo sapiens, HL-60, 72 h), the IC50 stood at 0.5 ± 0.1 nM.

Consider `O=C(Cc1nccc2ccccc12)NCc1ccc(CNC(=O)c2ccc3c(c2)CN(C2CCC(=O)NC2=O)C3=O)c(F)c1` (stereo not shown) [A158], for which the inhibition at 1 µM in test [1] was in the range of 30 to 60%. Besides, in test [2] (Homo sapiens, HL-60, 72 h), the IC50 was found to be 3.3 ± 0.3 nM.

For `O=C(Cc1cccc2ccccc12)NCc1ccc(CNC(=O)c2ccc3c(c2)CN(C2CCC(=O)NC2=O)C3=O)c(C(F)(F)F)c1` (stereo not shown) [A159], in test [1], the inhibition at 1 µM fell in the range of 60 to 90%. In test [2] (Homo sapiens, HL-60, 72 h), the IC50 turned out to be 2.2 ± 0.8 nM.

Consider `O=C(Cn1c2ccccc2c2cccnc21)NCc1ccc(CNC(=O)c2ccc3c(c2)CN(C2CCC(=O)NC2=O)C3=O)c(C(F)(F)F)c1` (stereo not shown) [A160], for which, in test [1], the inhibition at 1 µM is 60 to 90%. In test [2], the IC50 stood at 0.4 ± 0.3 nM.

For the compound `O=C(Cc1c(F)ccc2ccccc12)NCc1ccc(CNC(=O)c2ccc3c(c2)CN(C2CCC(=O)NC2=O)C3=O)c(C(F)(F)F)c1` (stereo not shown) [A161], in test [1], the inhibition at 1 µM lay in the range of 60 to 90%. The IC50 in test [2] (Homo sapiens, HL-60, 72 h) was 0.9 ± 0.1 nM.

With `O=C(Cc1cccc2ccc(F)cc12)NCc1ccc(CNC(=O)c2ccc3c(c2)CN(C2CCC(=O)NC2=O)C3=O)c(C(F)(F)F)c1` (stereo not shown) [A162], the inhibition at 1 µM in test [1] lay within 60 to 90%. Further, the IC50 in test [2] (Homo sapiens, HL-60, 72 h) came out at 1.9 ± 0.2 nM.

On to `O=C1CCC(N2Cc3cc(C(=O)NCc4ccc(C5(NC(=O)Cc6cccc7ccccc67)CC5)cc4F)ccc3C2=O)C(=O)N1` (stereo not shown) [A163], for which the inhibition at 1 µM in test [1] lay within 60 to 90%. Moreover, in test [2] (Homo sapiens, HL-60, 72 h), the IC50 turned out to be 1.3 ± 0.3 nM.

Take `O=C1CCC(N2Cc3cc(C(=O)NCc4ccc(C5(NC(=O)Cn6c7ccccc7c7cccnc76)CC5)cc4F)ccc3C2=O)C(=O)N1` (stereo not shown) [A164]: the inhibition at 1 µM in test [1] lay within 60 to 90%. Besides, the IC50 in test [2] (Homo sapiens, HL-60, 72 h) stood at 2.4 ± 0.3 nM.

For the compound `O=C(Cc1cccc2ccccc12)NCc1ccc(CC(=O)Nc2ccc3c(c2)C(=O)N(C2CCC(=O)NC2=O)C3=O)cc1` (stereo not shown) [A165], the inhibition at 1 µM in test [1] is 60 to 90%. In addition, the IC50 in test [2] (Homo sapiens, HL-60, 72 h) stood at 27.9 ± 19.5 nM.

On to `O=C(Cn1c2ccccc2c2cccnc21)NCc1ccc(CC(=O)Nc2ccc3c(c2)C(=O)N(C2CCC(=O)NC2=O)C3=O)cc1` (stereo not shown) [A166], for which, in test [1], the inhibition at 1 µM is 60 to 90%. Further, the IC50 in test [2] (Homo sapiens, HL-60, 72 h) amounted to 1.7 ± 0.3 nM.

The record behind these values is patent US20240350643A1, “PROTEIN DEGRADATION AGENT” (SUZHOU KINTOR PHARMACEUTICALS, INC., priority 2021, published 2024).
